This is an account of results in PMC11653397, “Elucidating the Metabolism of Chiral PCB95 in Wildtype and Transgenic Mouse Models with Altered Cytochrome P450 Enzymes Using Intestinal Content Screening” (Chemical Research in Toxicology, 2024).

“And” between values parts separate entries of the source, which are not always exact repeats. Identical values can stand only once. Like-named read-outs stand apart in the source and are kept apart here.

Data set [1] is described as follows: GC-MS/MS levels of PCB95 and total hydroxylated metabolites in intestinal content of orally exposed mice. Particulars: for concentration at 24 h: mouse, intestinal content (distal colon and rectum), po, 1 mg/kg. How it is done: The intestinal content samples used in this study were generated as part of a published study of the atropselective disposition of PCB95 and its hydroxylated metabolites in mice.[48] […] This PCB dose is frequently used in PCB developmental neurotoxicity studies in rodent models.[21],[49]−[52] Blank tissue samples to assess the background contamination with PCB95 were generated in parallel by administering corn oil alone to mice (1–3 mice per group). The animals were euthanized 24 h after exposure, and intestinal content samples from the dissected distal colon and rectum were collected. Samples were stored at −80 °C in separate plastic bags and shipped on dry ice to the University of Iowa for analysis.
PCB95 and total OH-PCB95 metabolite levels were determined in intestinal content samples after deconjugation of sulfate and glucuronide conjugates using published methods with modifications.[53] Briefly, intestinal content samples (50 ± 22 mg, n = 38) were homogenized with a TissueRuptor (Qiagen, Hilden, Germany) in 3 mL of 0.2 M sodium acetate buffer (pH 5) in glass tubes and spiked with 4-PCB52 sulfate (100 ng in DMSO) as a surrogate standard. After adding 50 μL of sulfatase (type H-2 from Helix pomatia, Sigma-Aldrich, Burlington, MA, USA), the samples were kept at 37 °C for 16 h in a shaking water bath. Samples were quenched with 1 mL of 6 M HCl, and the surrogate standards (50 ng of PCB117 in isooctane and 50 ng of 4′-159 in methanol) were added to the incubation system. Subsequently, 5 mL of 2-propanol and 5 mL of a 1:1 hexane–MTBE mixture (v/v) were added. The samples were inverted for 5 min and centrifuged at 1690g for 5 min to facilitate the phase separation. Next, the organic phases were transferred to new glass tubes with 3 mL of 1% KCl solution, the aqueous phases were re-extracted with 3 mL of hexane, and the organic phases were combined with the above extract. After inverting and centrifugation, the organic phases were collected, and the aqueous KCl phases were re-extracted with 3 mL of hexane. The combined extracts were evaporated to near dryness using a Savant SpeedVac SPD210 vacuum concentrator (Thermo Scientific, Waltham, MA, USA) coupled with an RVT5105 refrigerated vapor trap (Thermo Scientific, Waltham, MA, USA), and each sample was reconstituted with 0.5 mL of hexane.
Five drops of methanol and 0.5 mL of diazomethane (about 5 mmol) in diethyl ether were added to the intestinal content extracts to derivatize the OH-PCBs.[43] The samples were stored at 4 °C for approximately 16 h for derivatization, and excess diazomethane was removed under a gentle stream of nitrogen in a fume hood. The extract was reconstituted to 0.5 mL of dichloromethane and was loaded onto a glass SPE cartridge filled with 2 g of acidified silica gel (silica gel/H2SO4, 2:1, w/w) with 0.2 g of deactivated silica gel on the bottom.[14] The PCB and metabolites were eluted from the SPE cartridge with 14 mL of dichloromethane; the eluent was concentrated with a Savant SpeedVac SPD210 vacuum concentrator (Thermo Scientific) to near dryness, and the solvent was exchanged to 4 mL of hexane. The extracts were treated with 4 mL of concentrated sulfuric acid for further lipid removal.[14] The organic phase was concentrated to near dryness with a Savant SpeedVac SPD210 vacuum concentrator (Thermo Scientific) and spiked with an internal standard (50 ng of PCB204 in isooctane) for gas chromatographic quantification of PCB95 and its hydroxylated metabolites (as methylated derivatives).
PCB95 and metabolite determinations were conducted on an Agilent 7890B gas chromatograph equipped with an Agilent 7000D Triple Quad and an Agilent 7693 autosampler in the multiple reaction monitoring setting (GC–MS/MS).[14] Gas chromatographic separations were performed with an SPB-Octyl capillary column (30 m length, […], 0.25 μm film thickness; Supelco, Bellefonte, PA, USA).

Data set [2] concerns CYP2A6. Also on record: method as in PMID 30576102, PMID 27989147. The settings on record: pooled human liver microsomes, recombinant cytochrome P450 enzymes; cited from earlier work. On the technique in general: Liver microsomes are vesicles of endoplasmic reticulum, rich in cytochrome P450 enzymes.
For data set [3] the following is noted: mouse hepatic microsomes; cited from earlier work.
On the set-up of data set [4]: method as in doi:10.1016/0045-6535(75)90032-6. Particulars: rats exposed orally to PCB95; cited from earlier work.
The conditions of data set [5]: rat hepatic microsomes; cited from earlier work.
Details of data set [6]: method as in doi:10.1016/0045-6535(75)90032-6. The settings on record: mice exposed orally to PCB95; cited from earlier work.
A short description of data set [7]: Atropselective GC-ECD analysis (enantiomeric fraction) of PCB95 in intestinal content. The data set is classed as in vivo, mice. The settings on record: for Enantiomeric fraction (EF) of PCB95 residues in the intestinal content: EF=AE1/(AE1+AE2), racemic standard EF 0.498±0.004, oral 1.0 mg/kg bw, 24 h. The method, then: Atropselective analyses of PCB95 were performed using an Agilent 7890A gas chromatograph with a ^63Ni-μECD detector and a Chirasil-Dex CB capillary column (25 m length, 250 μm inner diameter, 0.25 μm film thickness; Agilent, Santa Clara, CA, USA).[52] The following temperature program was used: 50 °C, hold for 1 min, 10 °C/min to 150 °C, hold for 65 min, 15 °C/min to 200 °C, and hold for 15 min. The injector and detector temperatures were 250 °C. Helium was used as carrier gas with a flow rate of 3.0 mL/min; argon-methane 5% was used as makeup gas with a 60 mL/min flow rate. The enantiomeric fraction (EF) values were calculated with the valley drop method[55] as EF = AE1/(AE1 + AE2), where AE1 and AE2 are the peak area of the first (E1) and the second eluting (E2) atropisomers, respectively.

Setting [8] is: female, CYP2A6-transgenic/Cyp2abfgs-null (KI).
The mark [9] stands for this setting: male, CYP2A6-transgenic/Cyp2abfgs-null (KI).
The mark [10] stands for this setting: two-way ANOVA with Bonferroni correction.

Regarding `Oc1c(Cl)cc(Cl)c(-c2cc(Cl)ccc2Cl)c1Cl` [3-103, 2,4,6-trichloro-3-(2,5-dichlorophenyl)phenol], the concentration at 24 h in data set [1] (setting [8]) was 17 ± 11 ng/g; in data set [1] (female, Cyp2abfgs-null (KO)), 14 ± 7 ng/g; in data set [1] (female) it was 14 ± 6 ng/g; in data set [1] (setting [9]) it was 6 ± 6 ng/g; in data set [1] (male, Cyp2abfgs-null (KO)), 6 ± 2 ng/g; in data set [1] (male), 7 ± 4 ng/g.
With `Oc1cc(Cl)c(-c2c(Cl)ccc(Cl)c2Cl)cc1Cl` [4'-95, 2,2′,3,5′,6-pentachlorobiphenyl-4′-ol], the concentration at 24 h in data set [1] (setting [8]) is 764 ± 831 ng/g; in data set [1] (female, Cyp2abfgs-null (KO)), 414 ± 254 ng/g; in data set [1] (female) it was 356 ± 192 ng/g; in data set [1] (setting [9]) it was 298 ± 240 ng/g; in data set [1] (male, Cyp2abfgs-null (KO)), 447 ± 159 ng/g; in data set [1] (male) it was 452 ± 269 ng/g. In data set [2], the “Rank among PCB95 metabolites formed by human liver microsomes and recombinant P450 (CYP2A6)” value was “major metabolite”. Also, the “Rank among PCB95 metabolites formed by liver microsomes” value in data set [3] is “minor metabolites”.
Turning to `Oc1c(O)c(Cl)c(-c2cc(Cl)ccc2Cl)c(Cl)c1Cl` [4,5-95, 3,4,6-trichloro-5-(2,5-dichlorophenyl)benzene-1,2-diol], in data set [1] (all intestinal content samples, all exposure groups), the “Rank among OH-PCB95 metabolites in intestinal content” value was “major metabolite”. Further, the concentration at 24 h in data set [1] (setting [8]) worked out at 1670 ± 1290 ng/g; in data set [1] (female, Cyp2abfgs-null (KO)), 527 ± 255 ng/g; in data set [1] (female) it was 1090 ± 492 ng/g; in data set [1] (setting [9]), 570 ± 376 ng/g; in data set [1] (male, Cyp2abfgs-null (KO)), 1030 ± 507 ng/g; in data set [1] (male) it was 1410 ± 574 ng/g.
With `Oc1cc(Cl)c(-c2cc(Cl)ccc2Cl)c(Cl)c1Cl` [4-95, 2,2′,3,5′,6-pentachlorobiphenyl-4-ol], the concentration at 24 h in data set [1] (setting [8]) stood at 434 ± 352 ng/g; in data set [1] (female, Cyp2abfgs-null (KO)), 192 ± 70 ng/g; in data set [1] (female) it was 248 ± 109 ng/g; in data set [1] (setting [9]) it was 160 ± 134 ng/g; in data set [1] (male, Cyp2abfgs-null (KO)), 177 ± 68 ng/g; in data set [1] (male), 238 ± 134 ng/g. The “Rank among PCB95 metabolites formed by liver microsomes” value in data set [3] is “minor metabolites”.
In the case of `Oc1cc(Cl)c(Cl)c(-c2cc(Cl)ccc2Cl)c1Cl` [5-95, 2,2′,3,5′,6-pentachlorobiphenyl-5-ol], the concentration at 24 h was determined as 934 ± 790 ng/g in data set [1] (setting [8]); 359 ± 147 ng/g in data set [1] (female, Cyp2abfgs-null (KO)); 544 ± 295 ng/g in data set [1] (female); 300 ± 256 ng/g in data set [1] (setting [9]); 333 ± 123 ng/g in data set [1] (male, Cyp2abfgs-null (KO)); 424 ± 279 ng/g in data set [1] (male). Besides, the “Rank among PCB95 metabolites in feces” value in data set [4] and in data set [6] was “major metabolite” each time. Further, the “Rank among PCB95 metabolites formed by hepatic microsomes” value in data set [5] is recorded as “major PCB95 metabolite”. Also, the “Rank among PCB95 metabolites formed by liver microsomes” value in data set [3] is listed as “major PCB95 metabolite”.
Consider `Clc1ccc(Cl)c(-c2c(Cl)ccc(Cl)c2Cl)c1` [PCB95, 2,2′,3,5′,6-pentachlorobiphenyl], for which the concentration at 24 h worked out at 110 ± 95 ng/g in data set [1] (setting [8]); 26 ± 20 ng/g in data set [1] (female, Cyp2abfgs-null (KO)); 26 ± 18 ng/g in data set [1] (female); 33 ± 48 ng/g in data set [1] (setting [9]); 139 ± 265 ng/g in data set [1] (male, Cyp2abfgs-null (KO)); 39 ± 40 ng/g in data set [1] (male). Further, the “PCB95 levels in the intestinal content, FKI vs MKI mice” value in data set [1] (setting [10]) is listed as “higher”. Further, in data set [1] (setting [10]), the “PCB95 levels in the intestinal content, MKO vs MKI mice” value is reported as “significantly higher”. For the same molecule, the “Enantiomeric fraction (EF) of PCB95 residues in the intestinal content” value in data set [7] (FKI (n=4)) is 0.44±0.03; in data set [7] (FKO (n=6)) it was 0.44±0.05; in data set [7] (FWT (n=6), 1 mg/kg), 0.39±0.05 and 0.39; in data set [7] (MKI (n=5)) it was 0.40±0.03; in data set [7] (MKO (n=7), 1 mg/kg) it was 0.45±0.04 and 0.45; in data set [7] (MWT (n=5)), 0.41±0.05.
As to `Clc1ccc(Cl)c(-c2c(Cl)ccc(Cl)c2Cl)c1` [aS-PCB95], the “Atropisomeric enrichment in intestinal content” value in data set [7] (all intestinal content samples, irrespective of sex and genotype) is listed as “enriched”.
